Measured values taken from article PMC9385671 (Nature Communications, 2022).
“And” between values parts separate entries of the source, which are not always exact repeats. Identical values can stand only once. Like-named read-outs stand apart in the source and are kept apart here.

Experiments:
MjTyrRS variants [1] = target: T1, MjTyrRS variants (Methanocaldococcus jannaschii, UniProt Q57834, D158A/F108N/H70G/L162C/L65E/Y32V); assay: Intact cell fluorescence assay of HYs incorporation into SUMO-sfGFP; format: cell-based; conditions: Synthetase C64RS
T1 construct: expressed in transfected cells
T1 sequence (Q57834 whole entry Y32V/L65E/H70G/F108N/D158A/L162C): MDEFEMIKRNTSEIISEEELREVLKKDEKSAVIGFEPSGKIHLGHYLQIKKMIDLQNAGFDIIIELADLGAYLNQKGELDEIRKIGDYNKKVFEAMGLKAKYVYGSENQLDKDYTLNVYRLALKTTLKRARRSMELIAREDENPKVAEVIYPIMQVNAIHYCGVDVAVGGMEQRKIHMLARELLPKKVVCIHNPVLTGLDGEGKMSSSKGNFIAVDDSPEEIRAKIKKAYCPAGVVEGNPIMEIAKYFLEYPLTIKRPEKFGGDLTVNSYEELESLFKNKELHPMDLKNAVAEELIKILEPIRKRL
Experimental: (§1) The intact cell fluorescence assay was performed to approximately compare the Br2Y and Cl2Y incorporation efficiency of screened MjTyrRSs as well as to estimate their promiscuity against other Tyr analogues. Since the gene expression of SUMO-sfGFP was driven by T5 promoter on the one round positive selection plasmid, SUMO-sfGFP can be directly expressed in DH10b strain. […] Next day, an overnight culture was inoculated in a well at a ratio of 1:100 containing 300 μL TB medium supplemented with 50 μg/mL Kan,100 μg/mL Amp, 0.5 mM IPTG as well as 1 mM HYs while the corresponding control lacked the HYs. Cells were grown in 96 well plates (Ibidi) with orbital shaking (2 mm amplitude) for 24 h at 37 °C covered with a gas-permeable foil (Sigma Aldrich, Taufkirchen, Germany). […] After 24 h incubation, the optimal density and fluorescence was measured via top reading after the gas-permeable foil was removed. Each measurement was done in triplicate.

MjTyrRS variants [2] = target: T2, MjTyrRS variants (Methanocaldococcus jannaschii, UniProt Q57834, D158A/F108Q/H70G/L162N/L65E/Q109C/Y32G); assay: as above; format: cell-based; conditions: for Fluorescence Instensity: Synthetase B48RS
T2 construct: expressed in transfected cells
T2 sequence (Q57834 whole entry Y32G/L65E/H70G/F108Q/Q109C/D158A/L162N): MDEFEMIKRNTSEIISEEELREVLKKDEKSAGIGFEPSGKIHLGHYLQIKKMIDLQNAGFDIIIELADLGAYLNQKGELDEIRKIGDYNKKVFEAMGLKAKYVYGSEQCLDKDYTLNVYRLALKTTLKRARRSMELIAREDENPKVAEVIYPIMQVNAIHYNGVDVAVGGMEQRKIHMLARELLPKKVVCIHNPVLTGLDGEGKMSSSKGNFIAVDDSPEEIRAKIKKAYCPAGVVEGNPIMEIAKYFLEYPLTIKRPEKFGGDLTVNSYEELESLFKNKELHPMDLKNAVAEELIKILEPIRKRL
Experimental: as §1

MjTyrRS variants [3] = assay: as above; format: cell-based, Methanocaldococcus jannaschii
Experimental: as §1

[4] = Side-chain acidity: pKa by 1H NMR titration of free amino acids; format: physicochemical; conditions: for pKa: aqueous KH2PO4 solution titrated with sodium hydroxide; for pKa of the phenolic side-chain: experimental error ±0.15
Experimental: 10–20 mg of an amino acid, 50 mg of KH2PO4 was dissolved in 15 ml of water and titrated by sodium hydroxide solution to distinct pH values. 500 μl were taken to NMR tubes, 50 μl deuterium oxidewas added and ^1H NMR spectra were measured using W5 pulse tray water suppression at 500 MHz frequency. The chemical shifts were plotted against pH and analyzed using Henderson-Hasselbalch equation to deliver the pKa values. Experimental error ±0.15.

FtsZ-YFP-mts = FtsZ-YFP-mts (Escherichia coli, UniProt P0A9A6); parameters: made in house; host or cells: E. coli BL21(DE3) for the wild type; conditions: intensity line profile
Chain of FtsZ-YFP-mts (P0A9A6 1-366): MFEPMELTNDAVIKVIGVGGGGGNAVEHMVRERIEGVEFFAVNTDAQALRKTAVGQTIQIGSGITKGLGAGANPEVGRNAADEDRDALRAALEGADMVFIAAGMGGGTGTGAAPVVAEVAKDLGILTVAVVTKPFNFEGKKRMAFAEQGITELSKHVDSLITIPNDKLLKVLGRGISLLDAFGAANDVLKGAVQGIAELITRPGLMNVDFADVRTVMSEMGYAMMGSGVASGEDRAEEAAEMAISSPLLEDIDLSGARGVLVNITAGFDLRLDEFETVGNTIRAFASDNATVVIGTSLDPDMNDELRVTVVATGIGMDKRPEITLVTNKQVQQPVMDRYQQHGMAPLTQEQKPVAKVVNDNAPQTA
Experimental: 1,2-dioleoyl-sn-glycero-3-phosphocholine (DOPC):1,2-dioleoyl-sn-glycero-3-phospho-(1’-rac-glycerol) (DOPG), 70:30 mol % mixture, was dissolved in chloroform in a quartz container, then dehumidified under a gas nitrogen stream. Chloroform traces were further removed through desiccation (1 h). Afterwards, the lipid film was hydrated to a final concentration of 4 mg/ml in supported lipid bilayers (SLB) buffer (50 mM Tris-HCl at pH 7.5, 150 mM KCl), and incubated at 37 °C for 30 min. The lipid film was then completely resuspended by vortexing rigorously to obtain multilamellar vesicles of different sizes. This mixture was then placed in a bath sonicator where shear forces help to reduce the size of the vesicles, giving rise to small unilamellar vesicles (SUVs). The SUV dispersion were stored at −20 °C as 20 µl aliquots.
Glass coverslips (1.5#, 24 x 24 mm) were cleaned by piranha solution overnight, followed by extensive washing with milliQ H2O. Then glass coverslips were blown dry with compressed air. The reaction chamber was prepared by attaching a plastic ring on a cleaned glass coverslip using ultraviolet glue (Thorlabs No. 68). For supported lipid bilayer formation, the SUV dispersion was diluted in SLB buffer to 0.5 mg/ml, of which 75 µl was added to the reaction chamber. Adding CaCl2 to a final concentration of 3 mM induced fusion of the vesicles and the formation of a lipid bilayer on coversilde. After 20 min of incubation at 37 °C, the sample was rinsed with 2 ml pre-warmed SLB buffer.
Polymerization was induced by adding 4 mM GTP.
The UltimateFocus feature of DeltaVision Elite maintains the focus plane constant in time. […] Fluorescence imaging was performed using a standard FITC filter set. Images were acquired with a PCO sCMOS 5.5 camera (PCO, Germany) controlled by the softWoRx Software (GE Healthcare Life Sciences, Germany). For time-lapse experiments, images were acquired every 3 s with a 0.05 s exposure time and light illumination shuttered between acquisitions.

[5] = experimental error ±0.15, read-out: Ammonium pKa
[6] = experimental error ±0.15, read-out: pKa of the phenolic side-chain

Question: With `N[C@@H](Cc1cc(Cl)c(O)c(Cl)c1)C(=O)O` [Cl2Y, 3,5-dichloro-L-tyrosine] as the molecule, how does the “Fluorescence Instensity” value (MjTyrRS variants [1]) read?
Answer: 0.3285 a.u. and 0.3594 a.u. and 0.2924 a.u.

Question: What about the “Fluorescence Instensity” value (MjTyrRS variants [2]) of the same molecule?
Answer: 0.5689 a.u. and 0.6362 a.u. and 0.4688 a.u.

Question: What about the “Incorporation efficiency (sfGFP fluorescence) versus control without HYs additions” value (MjTyrRS variants [2]; mutant B48RS, 1 mM HY, E. coli DH10b) of the same molecule?
Answer: more than 100 fold

Question: What about the “Fluorescence Instensity” value (MjTyrRS variants [3]; Synthetase B4RS) of the same molecule?
Answer: 0.07529 a.u. and 0.09709 a.u. and 0.05112 a.u.

Question: And the “Fluorescence Instensity” value (MjTyrRS variants [3]; Synthetase B12RS)?
Answer: 0.3851 a.u. and 0.4746 a.u. and 0.2926 a.u.

Question: What about the “Fluorescence Instensity” value (MjTyrRS variants [3]; Synthetase B37RS) of the same molecule?
Answer: 0.3145 a.u. and 0.3721 a.u. and 0.2575 a.u.

Question: And the “Fluorescence Instensity” value (MjTyrRS variants [3]; Synthetase B39RS)?
Answer: 0.2554 a.u. and 0.3069 a.u. and 0.2029 a.u.

Question: What about the “Fluorescence Instensity” value (MjTyrRS variants [3]; Synthetase C5RS) of the same molecule?
Answer: 0.7019 a.u. and 0.7995 a.u. and 0.5915 a.u.

Question: What about the “Fluorescence Instensity” value (MjTyrRS variants [3]; Synthetase C45RS) of the same molecule?
Answer: 0.8209 a.u. and 0.9248 a.u. and 0.7159 a.u.

Question: What about the “Fluorescence Instensity” value (MjTyrRS variants [3]; Synthetase C61RS) of the same molecule?
Answer: 0.5873 a.u. and 0.6501 a.u. and 0.5303 a.u.

Question: What about the pKa [4, 5] of the same molecule?
Answer: 9.4

Question: And the pKa [4, 6]?
Answer: 6.5

Question: And the “pKa of the phenolic side-chain” value [4]?
Answer: 6.52

Question: Which “Fluorescence Instensity” value (MjTyrRS variants [1]) does the source give for `N[C@@H](Cc1ccc(O)c(Cl)c1)C(=O)O` [ClY, 3-chloro-L-tyrosine] here?
Answer: 0.3514 a.u. and 0.3883 a.u. and 0.3147 a.u.

Question: And the “Fluorescence Instensity” value (MjTyrRS variants [2])?
Answer: 0.5472 a.u. and 0.654 a.u. and 0.4364 a.u.

Question: What about the “Fluorescence Instensity” value (MjTyrRS variants [3]; Synthetase B12RS) of the same molecule?
Answer: 0.3856 a.u. and 0.4561 a.u. and 0.2986 a.u.

Question: What about the “Fluorescence Instensity” value (MjTyrRS variants [3]; Synthetase B37RS) of the same molecule?
Answer: 0.2734 a.u. and 0.2944 a.u. and 0.2525 a.u.

Question: What about the “Fluorescence Instensity” value (MjTyrRS variants [3]; Synthetase C5RS) of the same molecule?
Answer: 0.8727 a.u. and 1 a.u. and 0.7434 a.u.

Question: And the “Fluorescence Instensity” value (MjTyrRS variants [3]; Synthetase C45RS)?
Answer: 0.8577 a.u. and 0.9724 a.u. and 0.7484 a.u.

Question: What about the “Fluorescence Instensity” value (MjTyrRS variants [3]; Synthetase C61RS) of the same molecule?
Answer: 0.5458 a.u. and 0.6071 a.u. and 0.5015 a.u.

Question: What about the pKa [4, 5] of the same molecule?
Answer: 9.5

Question: And the pKa [4, 6]?
Answer: 8.3

Question: And the “pKa of the phenolic side-chain” value [4]?
Answer: 8.31

Question: What does the source list for `N[C@@H](Cc1ccc(O)cc1)C(=O)O` [Y, tyrosine]?
Answer: Fluorescence Instensity (MjTyrRS variants [1]): 0.01243 a.u. and 0.01248 a.u. and 0.01236 a.u.; Fluorescence Instensity (MjTyrRS variants [2]): 0.00506 a.u. and 0.00513 a.u. and 0.00494 a.u.; Fluorescence Instensity (MjTyrRS variants [3]; Synthetase B4RS): 0.06037 a.u. and 0.07682 a.u. and 0.04915 a.u.; Fluorescence Instensity (MjTyrRS variants [3]; Synthetase B37RS): 0.1466 a.u. and 0.1756 a.u. and 0.1118 a.u.; Fluorescence Instensity (MjTyrRS variants [3]; Synthetase B39RS): 0.1833 a.u. and 0.2205 a.u. and 0.1319 a.u.; Fluorescence Instensity (MjTyrRS variants [3]; Synthetase C5RS): 0.01571 a.u. and 0.01574 a.u. and 0.0156 a.u.; Gray value (FtsZ-YFP-mts; Distance(um) 5.15845): 0.2436; Gray value (FtsZ-YFP-mts; Distance(um) 5.17427): 0.2678; Gray value (FtsZ-YFP-mts; Distance(um) 5.1901): 0.2809; Gray value (FtsZ-YFP-mts; Distance(um) 5.20592): 0.2851; Gray value (FtsZ-YFP-mts; Distance(um) 5.22175): 0.3113; Gray value (FtsZ-YFP-mts; Distance(um) 5.23757): 0.3327; Gray value (FtsZ-YFP-mts; Distance(um) 5.25339): 0.3531; Gray value (FtsZ-YFP-mts; Distance(um) 5.26922): 0.3835; Gray value (FtsZ-YFP-mts; Distance(um) 5.28504): 0.428; Gray value (FtsZ-YFP-mts; Distance(um) 5.30086): 0.443; Gray value (FtsZ-YFP-mts; Distance(um) 5.31669): 0.4411; Gray value (FtsZ-YFP-mts; Distance(um) 5.33251): 0.4633; Gray value (FtsZ-YFP-mts; Distance(um) 5.34833): 0.4809; Gray value (FtsZ-YFP-mts; Distance(um) 5.36416): 0.4782; Gray value (FtsZ-YFP-mts; Distance(um) 5.37998): 0.498; Gray value (FtsZ-YFP-mts; Distance(um) 5.3958): 0.5435; Gray value (FtsZ-YFP-mts; Distance(um) 5.41163): 0.5554; Gray value (FtsZ-YFP-mts; Distance(um) 5.42745): 0.5565; Gray value (FtsZ-YFP-mts; Distance(um) 5.44327): 0.5888; Gray value (FtsZ-YFP-mts; Distance(um) 5.4591): 0.6168; Gray value (FtsZ-YFP-mts; Distance(um) 5.47492): 0.6475; Gray value (FtsZ-YFP-mts; Distance(um) 5.49074): 0.6743; Gray value (FtsZ-YFP-mts; Distance(um) 5.50657): 0.698; Gray value (FtsZ-YFP-mts; Distance(um) 5.52239): 0.7626; Gray value (FtsZ-YFP-mts; Distance(um) 5.53821): 0.7361; Gray value (FtsZ-YFP-mts; Distance(um) 5.55404): 0.7938; Gray value (FtsZ-YFP-mts; Distance(um) 5.56986): 0.8828; Gray value (FtsZ-YFP-mts; Distance(um) 5.58569): 0.899; Gray value (FtsZ-YFP-mts; Distance(um) 5.60151): 0.8493; Gray value (FtsZ-YFP-mts; Distance(um) 5.61733): 0.8767; Gray value (FtsZ-YFP-mts; Distance(um) 5.63316): 0.9446; Gray value (FtsZ-YFP-mts; Distance(um) 5.64898): 1; Gray value (FtsZ-YFP-mts; Distance(um) 5.6648): 0.9652; Gray value (FtsZ-YFP-mts; Distance(um) 5.68063): 0.9584; Gray value (FtsZ-YFP-mts; Distance(um) 5.69645): 0.9755; Gray value (FtsZ-YFP-mts; Distance(um) 5.71227): 0.9816; Gray value (FtsZ-YFP-mts; Distance(um) 5.7281): 0.9099; Gray value (FtsZ-YFP-mts; Distance(um) 5.74392): 0.8492; Gray value (FtsZ-YFP-mts; Distance(um) 5.75974): 0.8638; Gray value (FtsZ-YFP-mts; Distance(um) 5.77557): 0.7917; Gray value (FtsZ-YFP-mts; Distance(um) 5.79139): 0.7498; Gray value (FtsZ-YFP-mts; Distance(um) 5.80721): 0.6513
